The results in this text go back to patent publication US20260224756A1, “Methods Of Cellular Imaging And Inorganic Nanoimaging Agents For Same” (Cornell University, priority 2023, published 2026).

What all share (type): in vivo, mouse
The test system of test [1] is osteocytes. Nature of the test: Endocytosis Inhibition Experiment: Dyngo4a or MβCD pre-incubation before C'Dot injection and clearance imaging. The settings on record: for changes in uptake and retention of C'Dots into osteocytes (FIG. 17): RGD and PEG C'Dots; for number of cells visualized and quantified at the initial imaging timepoint compared to untreated control: RGD-C'Dots, 30 minute preincubation of drug. On the procedure:
C'Dot Injection and Incubation: Mice were anesthetized with 2-3% isoflurane mixed with medical grade air in an induction chamber for 3 minutes prior to injection. During injection, mice were kept under 2% isoflurane with a nose cone. A 10 μL subcutaneous injection of 10 μM C'Dots was then administered over the third metatarsal (MT3). C'Dots were incubated for 1 hour prior to MT3 isolation (n=4-5/group/sex). Mice were allowed normal cage activity during their incubation time, and were re-anesthetized immediately before MT3 isolation.
C'Dot Imaging: C'Dot fluorescent signal inside the MT3 was visualized with multiphoton microscopy (MPM) (Bergamo II, Thorlabs) as previously described (Matthews 2023). Briefly, a 20× immersion objective (XLUMPLFLN, Olympus), 1090 nm wavelength excitation, and a >647 nm longpass filter acquisition were used for Cy5 encapsulated C'Dots. Images were captured at 1024×1024 pixel density and 0.588 μm pixel resolution. For the C'Dot clearance study, a 35 μm z-stack was taken for each mouse, starting 20 μm beneath the bone surface, with 0.3 μm steps between each slice and 7 frame averaging per slice. These z-stacks were taken every 15 minutes for almost 3 hours after the initial 1 hour incubation.
C'Dot Image Analysis: Z-stacks were analyzed in ImageJ (NIH) as previously described (Matthews 2023). Briefly, a macro was created to interpolate the regions of interest across the z-stack as well as filter the images. Then 3D segmentation was run, creating objects for all cell volumes over a threshold intensity. The lower bound for threshold intensity was established as the mean plus 3× standard deviation of background fluorescence. Segmented objects were then filtered by surface area (>1000 pixels) to ensure only full cell volumes were counted, and mean intensity for each object was quantified using the 3D manager tool. Intensities were normalized to background within each z-stack.
Endocytosis Inhibition Experiment: The small molecule Dyngo4a was used as a potent Dynasore analogue to evaluate the impact of dynamin-mediated endocytosis inhibition. A pre-incubation of Dyngo4a (10 μL, 30 μM) was subcutaneously injected above the MT3 30 minutes prior to C'Dot injection and subsequent imaging. Dyngo4a was diluted from a stock solution in DMSO to the working concentration in 1×PBS. Dyngo4a was kept at […] and was defrosted prior to use. Methyl-β-cyclodextrin (MβCD) was used as a depletor of plasma membrane cholesterol to evaluate the impact of cholesterol-mediated, lipid raft-based endocytosis inhibition. A pre-incubation of MβCD (10 μL, 10 mM) was subcutaneously injected 30 minutes before C'Dot injection. MβCD was diluted from a powder in 1×PBS. MβCD was kept at 4 C and warmed to room temperature prior to use. Both drugs were tested across all groups: male and female, PEG- and RGD-C'Dots (n=4-5/group/sex).
Statistical Analyses: Clearance study analysis was done using a student's t-test, 2-way ANOVAs, and regression analyses, including non-linear (One Phase Decay) and linear. Analyses were performed in GraphPad Prism version 9.0 for Mac OS X (GraphPad Software).
METHODS: Silica core poly(ethylene glycol) shell (core-shell) nanoparticles covalently encapsulating Cy5 dye (PE G-C'Dots) were created using a modified Stober condensation in water. RGD-C'Dots were created by surface functionalizing C'Dot surface with amino acid motifs that bind to the extracellular RGD domain of integrin proteins. Skeletally mature C57BL/6J mice age 16-18 weeks were used for these studies (n=4-5/group/sex). C'Dot Injections: Under inhaled isoflurane anesthesia, PEG- or RGD-C'Dots were injected subcutaneously above the third metatarsal (MT3) in the mouse hind paw at a concentration of 10 μM (FIG. 9). C'Dots were incubated for 45 minutes with mice allowed normal cage activity. […]

For test [2], the system named is osteocytes. Nature of the test: Combined acute and extended C'Dot clearance from osteocytes in non-drugged and drugged groups. Particulars: for impact on combined acute and extended C'Dot clearance (FIG. 18): male mice; for impact on combined acute and extended C'Dot clearance (FIG. 19): male mice (so in the source). The protocol:
Osteocyte C'Dot Endocytosis and Metabolism: C'Dots and their rapid uptake and clearance from osteocytes was used to study endocytosis in living bone tissue. In endocytosis experiments, different drugs are preincubated in the foot (injected in the same manner) prior to C'Dot application and incubation. Drugs to target different types of endocytic pathways, including non-receptor mediated endocytosis and clathrin mediated endocytosis, were used. The same clearance imaging was performed to see how the drugs impact the cellular uptake and retention of the nanoparticles over time.
Additionally, this experiment was performed again with a short, 5 minute incubation and more rapid imaging to see what the acute impacts of the drugs were on C'Dot uptake.

Test [3] has as its system osteocytes. Nature of the test: Quantification of C'Dot Subcellular Localization within osteocyte cell bodies. The protocol:
Quantification of C'Dot Subcellular Localization: Individual frames from z-stacks taken after a 45 minute C'Dot incubation were analyzed for subcellular localization within osteocytes under different study conditions. Filtering with a gaussian blur was performed prior to thresholding of signal and particle analysis to identify cellular regions of interest (ROIs). These ROIs were overlayed onto the original image. Cells with distinct subcellular localization of C'Dots were counted as a percentage of total cells. Other cells had saturated or non-distinct signal. Cells with C'Dot signal in with a rim phenotype were also quantified by-eye. Two blinded individuals quantified the images and averaged consensus data was used in the final results.
METHODS: Silica core poly(ethylene glycol) shell (core-shell) nanoparticles covalently encapsulating Cy5 dye (PE G-C'Dots) were created using a modified Stober condensation in water. RGD-C'Dots were created by surface functionalizing C'Dot surface with amino acid motifs that bind to the extracellular RGD domain of integrin proteins. Skeletally mature C57BL/6J mice age 16-18 weeks were used for these studies (n=4-5/group/sex). C'Dot Injections: Under inhaled isoflurane anesthesia, PEG- or RGD-C'Dots were injected subcutaneously above the third metatarsal (MT3) in the mouse hind paw at a concentration of 10 μM (FIG. 9). C'Dots were incubated for 45 minutes with mice allowed normal cage activity. Pre-incubation with Dyngo-4a (Abcam) or Methyl-β-cyclodextrin (Sigma Aldrich) for 30 minutes prior to C'Dot injection was used to inhibit dynamin activity or cholesterol lipid raft formation in treated groups. Imaging: After incubation, the MT3 was surgically isolated and stabilized using a metal 3-pin system in re-anesthetized mice'. […] Image Quantification: Mean intensity and cell count of the C'Dot tagged osteocytes were quantified in ImageJ (NIH) using 3D segmentation and were normalized to background intensity. Subcellular localization of C'Dots was quantified by eye from a single frame of the first z-stack of each clearance experiment. […]

Entries after “also recorded” stand apart in the source; their conditions may differ.

As to `O=C(N/N=C/c1cc(O)c(O)cc1O)c1cc2ccccc2cc1O` [Dyngo4a], the “change of PEG-C'Dot clearance from untreated control” value in the test on osteocytes [1] (PEG-C'Dots, males and females, Dyngo4a preincubation) was “neither males or females having significant change”. The “changes in uptake and retention of C'Dots into osteocytes (FIG. 17)” value in the test with osteocytes [1] was “significant changes in uptake and retention”. In addition, the “RGD-C'Dot signal at the end of the imaging experiment” value is “near zero by the end of the experiment” with osteocytes [1] (female mice, Dyngo4a preincubation) and “maintained until the end of the imaging experiment” in the test with osteocytes [1] (male mice, Dyngo4a preincubation). For the same compound, the figures for the “number of cells visualized and quantified at the initial imaging timepoint compared to untreated control” value in the test on osteocytes [1] (female mice) and in the test with osteocytes [1] (male mice) were “no statistically significant impact” and “significantly higher”, respectively. Besides, the “RGD C'Dot signal intensity and retention compared to untreated control” value in the test with osteocytes [1] (male mice, Dyngo4a pre-incubation) is given as “significantly increased”. In the test on osteocytes [2], the “impact on combined acute and extended C'Dot clearance (FIG. 18)” value is listed as “has an impact only on the RGD C'Dots”. The “impact on combined acute and extended C'Dot clearance (FIG. 19)” value with osteocytes [2] is “does not have an impact on either C'Dot type”. In the test with osteocytes [3] (females, pre-incubation with drug), the “change in cells with discrete localization of RGD C'Dot signal after drug pre-incubation” value is “non-significant decrease; also recorded: no statistically significant impact”. Besides, the “cells with discrete localization of RGD C'Dot signal after drug pre-incubation” value with osteocytes [3] (males, pre-incubation with drug) came out at 25%.

Take Methyl-β-cyclodextrin [MβCD]: the “changes in uptake and retention of C'Dots into osteocytes (FIG. 17)” value with osteocytes [1] was “significant changes in uptake and retention”. Moreover, the “RGD C'Dot signal compared to untreated control” value in the test on osteocytes [1] (female group, MβCD pre-incubation) is given as “significant increase”; in the test on osteocytes [1] (male group, MβCD pre-incubation), “significant increase”; in the test with osteocytes [1] (male group, MβCD pre-incubation, listed as M (3CD)), “no effect”. Moreover, the “PEG C'Dot signal compared to untreated control” value in the test with osteocytes [1] (male and female PEG C'Dot groups, MβCD pre-incubation) was “only males retained a significant increase in signal”. For the same compound, the “impact on combined acute and extended C'Dot clearance (FIG. 18)” value in the test on osteocytes [2] was “has an impact on both C'Dot types”. In the test with osteocytes [2], the “impact on combined acute and extended C'Dot clearance (FIG. 19)” value is recorded as “has an impact on both C'Dot types”. Besides, in the test on osteocytes [3] (any group), the “change in percentage of cells with subcellular localization after drug pre-incubation” value was “did not significantly change”.
